The values that follow come from PubChem BioAssay (NCI).

Among the test systems are UO-31 renal; OVCAR-8 ovarian; SNB-75 CNS; M14 melanoma; UACC-62 melanoma; EKVX NSCLC; UACC-257 melanoma; MOLT-4 leukemia; KM12 colon; NCI-H23 lung; BT-549 breast; SK-MEL-2 melanoma; SF-268 CNS; LOX IMVI melanoma; SK-MEL-28 melanoma; MCF7 breast; ACHN renal; SK-OV-3 ovarian; SF-295 CNS.
Common to all, as to assay: DTP human tumour cell line panel, 48 h

The structures appear in SMILES notation.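 How tested: cells in 96-well plates exposed to compound for 48 hours at five concentrations. TGI denotes the concentration required for complete inhibition of growth.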 A value given as a limit tells only on which side of the number the result lay.

A word on the TGI: it is the concentration giving total growth inhibition. Low values mean greater sensitivity of the cells, high ones lower sensitivity of the cells. `Cc1cc(C)nc(NC(=S)Nc2cccc(Cl)c2)c1`: the concentration for total growth inhibition (TGI) with UO-31 renal, in the test on OVCAR-8 ovarian, in the test on SNB-75 CNS, in the test with M14 melanoma, in the test on UACC-62 melanoma and with EKVX NSCLC was above 100 µM in each case. Also, the total growth inhibition concentration (TGI) with UACC-257 melanoma, with MOLT-4 leukemia, in the test on KM12 colon, in the test on NCI-H23 lung, with BT-549 breast and in the test on SK-MEL-2 melanoma was above 100 µM throughout. In addition, the concentration for total growth inhibition (TGI) in the test with SF-268 CNS is above 100 µM; with LOX IMVI melanoma, above 100 µM; in the test on SK-MEL-28 melanoma it was above 100 µM; in the test with MCF7 breast, above 58.3 µM; in the test on ACHN renal, above 100 µM; in the test on SK-OV-3 ovarian, above 100 µM. In the test with SF-295 CNS, this molecule registered a TGI above 100 µM.
For the molecule `C#CCn1c(=O)c(C)cn(/C(=C/C(=O)OCC)C(=O)OCC)c1=O`, the concentration for total growth inhibition (TGI) with UO-31 renal was found to be 23.4 µM; in the test on OVCAR-8 ovarian, 5.56 µM; with SNB-75 CNS, 28.8 µM; in the test with M14 melanoma, 14 µM; in the test with UACC-62 melanoma, 24.8 µM; in the test on EKVX NSCLC, 21.1 µM. For the same molecule, the concentration for total growth inhibition (TGI) was 28.8 µM in the test on UACC-257 melanoma; 30.6 µM with MOLT-4 leukemia; 32 µM in the test with KM12 colon; 23.4 µM in the test on NCI-H23 lung; 20.4 µM in the test on BT-549 breast; 27.2 µM with SK-MEL-2 melanoma. Further, the TGI is 25.6 µM with SF-268 CNS; 29.8 µM with LOX IMVI melanoma; 19.7 µM in the test on SK-MEL-28 melanoma; 13.7 µM in the test with MCF7 breast; 3.64 µM with ACHN renal; above 63.1 µM in the test with SK-OV-3 ovarian. Also, the total growth inhibition concentration (TGI) in the test on SF-295 CNS stood at 40.5 µM.
Take `C/C(=N/NC(=S)N1CCCCCC1)c1ccccc1O`: the concentration for total growth inhibition (TGI) in the test with UO-31 renal is above 88.3 µM; in the test with OVCAR-8 ovarian, above 100 µM; in the test on SNB-75 CNS it was 69.1 µM; with M14 melanoma, 11 µM; in the test with UACC-62 melanoma, 17.7 µM; in the test on EKVX NSCLC it was above 100 µM. The TGI in the test on UACC-257 melanoma was 30.9 µM; in the test with MOLT-4 leukemia it was 24.4 µM; in the test on KM12 colon, above 53.7 µM; in the test with NCI-H23 lung, above 100 µM; with BT-549 breast, above 100 µM; with SK-MEL-2 melanoma, above 100 µM. Also, the total growth inhibition concentration (TGI) is above 24.5 µM in the test on SF-268 CNS; above 78.7 µM in the test on LOX IMVI melanoma; above 100 µM in the test with SK-MEL-28 melanoma; above 100 µM with MCF7 breast; 39 µM with ACHN renal; above 100 µM with SK-OV-3 ovarian. This molecule also gave a TGI in the test on SF-295 CNS above 100 µM.
For the molecule `Cc1nc2ccc(N=Nc3c(O)ccc4ccccc34)cc2[nH]1`, the total growth inhibition concentration (TGI) with UO-31 renal was above 84.8 µM; in the test on OVCAR-8 ovarian, 69.6 µM; in the test with SNB-75 CNS it was above 100 µM; in the test on M14 melanoma, above 81.5 µM; in the test with UACC-62 melanoma, above 63.4 µM; with EKVX NSCLC, above 83.6 µM. For the same molecule, the TGI with UACC-257 melanoma is above 63.5 µM; with MOLT-4 leukemia, 66.2 µM; with KM12 colon it was above 100 µM; with NCI-H23 lung, above 100 µM; with BT-549 breast, 59.7 µM; in the test with SK-MEL-2 melanoma, above 76.8 µM. In addition, the total growth inhibition concentration (TGI) is above 100 µM with SF-268 CNS; 32.4 µM in the test on LOX IMVI melanoma; above 100 µM in the test with SK-MEL-28 melanoma; 44.9 µM in the test with MCF7 breast; above 57.2 µM in the test with ACHN renal; above 100 µM in the test on SK-OV-3 ovarian. In the test on SF-295 CNS, this molecule yielded a TGI above 100 µM.
With `CC(C)(C)OC(=O)N1C[C@H](CC(=O)OCc2ccccc2)C[C@H]1C(=O)OCC(Cl)(Cl)Cl`, the TGI in the test on UO-31 renal is 11 µM; in the test with OVCAR-8 ovarian, above 50 µM; with SNB-75 CNS, above 50 µM; in the test on M14 melanoma, above 50 µM; with UACC-62 melanoma, above 50 µM; in the test on EKVX NSCLC it was above 50 µM. For the same molecule, the TGI in the test with UACC-257 melanoma was 31.3 µM; in the test on MOLT-4 leukemia, 3.36 µM; with KM12 colon, above 50 µM; in the test on NCI-H23 lung, above 50 µM; in the test on BT-549 breast, above 50 µM; in the test with SK-MEL-2 melanoma, 23 µM. Further, the TGI with SF-268 CNS, in the test on LOX IMVI melanoma, in the test with SK-MEL-28 melanoma, in the test with MCF7 breast, in the test with ACHN renal and in the test with SK-OV-3 ovarian was above 50 µM throughout. Also, the concentration for total growth inhibition (TGI) in the test with SF-295 CNS was above 50 µM.
Regarding `O=C(O)C(F)(OC(F)(F)C(F)(F)C(F)(F)F)C(F)(F)F` (stereo not drawn), the concentration for total growth inhibition (TGI) with UO-31 renal, in the test with OVCAR-8 ovarian, in the test with SNB-75 CNS, in the test with M14 melanoma, in the test with UACC-62 melanoma and with EKVX NSCLC was above 100 µM throughout. Moreover, the TGI with UACC-257 melanoma, in the test on MOLT-4 leukemia, in the test with KM12 colon, in the test with NCI-H23 lung, with BT-549 breast and with SK-MEL-2 melanoma was above 100 µM in each case. In addition, the concentration for total growth inhibition (TGI) in the test on SF-268 CNS, in the test on LOX IMVI melanoma, in the test on SK-MEL-28 melanoma, in the test with MCF7 breast, in the test on ACHN renal and in the test with SK-OV-3 ovarian was above 100 µM throughout. In the test on SF-295 CNS, this molecule had a concentration for total growth inhibition (TGI) above 100 µM.
Consider `CC(=O)O[C@@]12[C@@H]3O[C@@]4(O)C[C@]5(C)[C@H]6C[C@@](C(C)C)(O[C@H]5c5ccoc5)O[C@H]1[C@]6(C4)O[C@]2(O)C(C)=CC3(C)C`, for which the concentration for total growth inhibition (TGI) with UO-31 renal, in the test with OVCAR-8 ovarian, in the test on SNB-75 CNS, in the test on M14 melanoma, with UACC-62 melanoma and in the test on EKVX NSCLC was above 100 µM in each case. Moreover, the TGI in the test with UACC-257 melanoma, with MOLT-4 leukemia, in the test with KM12 colon, in the test with NCI-H23 lung, in the test with BT-549 breast and with SK-MEL-2 melanoma was above 100 µM in each case. For the same molecule, the TGI with SF-268 CNS, with LOX IMVI melanoma, in the test with SK-MEL-28 melanoma, in the test on MCF7 breast, with ACHN renal and in the test with SK-OV-3 ovarian was above 100 µM each time. Moreover, the TGI in the test on SF-295 CNS is above 100 µM.
